Read-outs that look alike come from different tables or passages of the source.
What was measured:
[1] = test system: HCC827 cells (EGFR delE746-A750); experiment: Cell proliferation (CellTiter Glo), HCC827 cells
[2] = test system: H1975 cells (EGFR L858R/T790M); experiment: Cell proliferation (CellTiter Glo), H1975 cells
[3] = target: EGFR (WT) (Homo sapiens (Human), UniProt P00533); experiment: Omnia biochemical assay, EGFR-WT active enzyme; details: [EGFR-WT]=5 nM, [ATP]=15 uM, 30 min pre-incubation
Experimental: Kinase reactions were started with the addition of 45 μL of the ATP/Tyr-Sox peptide substrate mix and monitored every 71 seconds for 60 minutes at λex360/λem485 in a Synergy^4 plate reader from BioTek (Winooski, Vt.).
The compound numbers correspond to the compound numbers in Table 1.

[4] = target: WT EGFR (A431 cells) (Homo sapiens (Human), UniProt P00533); experiment: Phospho-EGFR signaling immunoblot in A431 cells (WT EGFR); type: cell-based; details: 1 hr treatment, EGF stimulated, phospho-EGFR (Y1068)
Experimental: (§1) A431 human epidermoid carcinoma, H1975 human NSCLC and HCC827 human NSCLC adenocarcinoma cells were obtained from the American Type Culture Center (Manassas, Va.). A431 cells were grown in DMEM (Invitrogen, Carlsbad, Calif.) supplemented with 10% FBS (HyClone, South Logan, Utah) and 1% Penicillin-Streptomycin (P/S, Lonza, Walkersville, Md.).
(§2) All primary antibodies were obtained from Cell Signaling (Danvers, Mass.) and used at 1:1000. Secondary antibodies were used at 1:10,000. Goat anti-mouse IgG IRDye 800CW antibody was obtained from LiCor Biosciences (Lincoln, Nebr.) and goat anti-rabbit IgG Alexa Fluor 680 was obtained from Invitrogen.
(§3) Cells were grown in 12-well plates (Corning, Coring, N.Y.) to 90% confluence and then incubated in low-serum (0.1% FBS) media for 16-18 hr. […] A431 cells were then stimulated with 50 ng/ml EGF (Peprotech, Rocky Hill, N.J.) for 15 min. After treatment, cell monolayers were washed with cold PBS (Invitrogen) and immediately lysed by scrapping into 60 uL cold Cell Extraction Buffer (Invitrogen) supplemented with Complete Protease inhibitors (Roche, Indianapolis, Ind.) and PhosphoSTOP (Roche) phosphatase inhibitors.
(§4) Phospho-protein signals were quantitated using Odyssey Infrared Imaging (Li-Cor Biosciences).
(§5) To assess phosphor-EGFR signaling, blots were probed with rabbit anti-Phospho-EGFR (Y1068) and mouse total anti-EGFR antibodies. Phospho-EGFR signal was normalized to total EGFR expression for each sample. […] Normalized data was fitted using a sigmoidal curve analysis program (Graph Pad Prism version 5) with variable Hill slope to determine the EC50 values.
(§6) The compound numbers recited in Table 4 correspond to the compound numbers in Table 1.

[5] = target: EGFR double mutation L858R/T790M (H1975 cells) (Homo sapiens (Human), UniProt P00533, L858R/T790M); experiment: Phospho-EGFR signaling immunoblot in H1975 cells; type: cell-based; details: for EC50: H1975 cells, 1 hr treatment, phospho-EGFR (Y1068)
Experimental: as §1, §2, §3, §4, §5, §6

[6] = proliferation GI50 WT EGFR / HCC827
[7] = proliferation GI50 WT EGFR / H1975

SMILES	IC50 [3] [nM]	EC50 [4] [nM]	EC50 [5] [nM]	Ratio WT/mutant (H1975) ([5]; signaling EC50 WT EGFR / H1975)	Ratio WT/mutant (HCC827) [1, 6]	Ratio WT/mutant (H1975) [2, 7]	Ratio WT/mutant (HCC827) [1]	Ratio WT/mutant (H1975) [2]
C=CC(=O)Nc1cccc(Nc2nc(Nc3ccc(N4CCN(C(=O)OC(C)(C)C)[C@H](C(=O)OC)C4)cc3OC)ncc2C(F)(F)F)c1 [Compound I-50, (S)-1-tert-butyl 2-methyl 4-(4-(4-(3-acrylamidophenylamino)-5-(trifluoromethyl)pyrimidin-2-ylamino)-3-methoxyphenyl)piperazine-1,2-dicarboxylate]					>50	>10		
C=CC(=O)Nc1cccc(Oc2nc(Nc3ccc(N4CCN(C(=O)OC)CC4)cc3OC)ncc2C(F)(F)F)c1 [Compound I-20, methyl 4-(4-(4-(3-acrylamidophenoxy)-5-(trifluoromethyl)pyrimidin-2-ylamino)-3-methoxyphenyl)piperazine-1-carboxylate]	10 to 30						>15	>5
C=CC(=O)Nc1cccc(Oc2nc(Nc3ccc(N4CCCN(C(=O)OC(C)(C)C)CC4)cc3OC)ncc2Cl)c1 [Compound I-43, tert-butyl 4-(4-(4-(3-acrylamidophenoxy)-5-chloropyrimidin-2-ylamino)-3-methoxyphenyl)-1,4-diazepane-1-carboxylate]	300 to 1000							
C=CC(=O)Nc1cccc(Oc2nc(Nc3ccc(N4CCOCC4)cc3OC(F)F)ncc2Cl)c1 [Compound I-36, N-(3-(5-chloro-2-(2-(difluoromethoxy)-4-morpholinophenylamino)pyrimidin-4-yloxy)phenyl)acrylamide]	10 to 30				>50	>25		
C=CC(=O)Nc1cccc(Nc2nc(Nc3ccc(N4CCN(S(C)(=O)=O)CC4)cc3OC)ncc2Cl)c1 [Compound I-41, N-(3-(5-chloro-2-(2-methoxy-4-(4-(methylsulfonyl)piperazin-1-yl)phenylamino)pyrimidin-4-ylamino)phenyl)acrylamide]	30 to 100	> 1000	> 1000	>1	>20	>1		
C=CC(=O)Nc1cccc(Oc2nc(Nc3ccc(N4CCCN(C(=O)OC(C)(C)C)CC4)cc3OC)ncc2C(F)(F)F)c1 [Compound I-39, tert-butyl 4-(4-(4-(3-acrylamidophenoxy)-5-(trifluoromethyl)pyrimidin-2-ylamino)-3-methoxyphenyl)-1,4-diazepane-1-carboxylate]	> 1000				>1	<1		
C=CC(=O)Nc1cccc(Nc2nc(Nc3ccc(N4CCCOCC4)cc3OC)ncc2C(F)(F)F)c1 [Compound I-38, N-(3-(2-(2-methoxy-4-(1,4-oxazepan-4-yl)phenylamino)-5-(trifluoromethyl)pyrimidin-4-ylamino)phenyl)acrylamide]	10 to 30				>5	>1		
C=CC(=O)Nc1cccc(Nc2nc(Nc3ccc(N4CCN(C(=O)CO)CC4)cc3OC(F)F)ncc2C(F)(F)F)c1 [Compound I-31, N-(3-(2-(2-(difluoromethoxy)-4-(4-(2-hydroxyacetyl)piperazin-1-yl)phenylamino)-5-(trifluoromethyl)pyrimidin-4-ylamino)phenyl)acrylamide]	< 1							
C=CC(=O)Nc1cccc(Nc2nc(Nc3ccc(N4CCCN(C(=O)C(F)(F)F)CC4)cc3OC)ncc2C(F)(F)F)c1 [Compound I-19, N-(3-(2-(2-methoxy-4-(4-(2,2,2-trifluoroacetyl)-1,4-diazepan-1-yl)phenylamino)-5-(trifluoromethyl)pyrimidin-4-ylamino)phenyl)acrylamide]	100 to 300				>10	>5		
C=CC(=O)Nc1cccc(Oc2nc(Nc3ccc(N4CCN(C(=O)OC(C)(C)C)CC4)cc3OC)ncc2C(F)(F)F)c1 [Compound I-42, tert-butyl 4-(4-(4-(3-acrylamidophenoxy)-5-(trifluoromethyl)pyrimidin-2-ylamino)-3-methoxyphenyl)piperazine-1-carboxylate]	300 to 1000							
C=CC(=O)Nc1cccc(Nc2nc(Nc3ccc(N4CCN(C(=O)OC)CC4)cc3OC)ncc2C(F)(F)F)c1 [Compound I-29, methyl 4-(4-(4-(3-acrylamidophenylamino)-5-(trifluoromethyl)pyrimidin-2-ylamino)-3-methoxyphenyl)piperazine-1-carboxylate]	10 to 30	> 1000			>15	>10		

More lines, main results first:

IC50 [3] [nM]	EC50 [4] [nM]	EC50 [5] [nM]	Ratio WT/mutant (H1975) ([5]; signaling EC50 WT EGFR / H1975)	SMILES	Ratio WT/mutant (HCC827) [1, 6]	Ratio WT/mutant (H1975) [2, 7]	Ratio WT/mutant (HCC827) [1]	Ratio WT/mutant (H1975) [2]
30 to 100		10 to 100		C=CC(=O)Nc1cccc(Oc2nc(Nc3ccc(N4CCOCC4)cc3OC(F)F)ncc2C(F)(F)F)c1 [Compound I-13, N-(3-(2-(2-(difluoromethoxy)-4-morpholinophenylamino)-5-(trifluoromethyl)pyrimidin-4-yloxy)phenyl)acrylamide]	>50	>10		
> 1000				C=CC(=O)Nc1cccc(Oc2nc(Nc3ccc(N4CCN(C(=O)OC(C)(C)C)CC4)cc3OCC)ncc2Cl)c1 [Compound I-18, tert-butyl 4-(4-(4-(3-acrylamidophenoxy)-5-chloropyrimidin-2-ylamino)-3-ethoxyphenyl)piperazine-1-carboxylate]	>5	>1		
1 to 10	> 1000			C=CC(=O)Nc1cccc(Oc2nc(Nc3ccc(N4CCN(S(N)(=O)=O)CC4)cc3OC)ncc2C(F)(F)F)c1 [Compound I-27, N-(3-(2-(2-methoxy-4-(4-sulfamoylpiperazin-1-yl)phenylamino)-5-(trifluoromethyl)pyrimidin-4-yloxy)phenyl)acrylamide]	>10	>1		
1 to 10	> 1000			C=CC(=O)Nc1cccc(Oc2nc(Nc3ccc(N4CCN(C(C)=O)CC4)cc3OC)ncc2Cl)c1 [Compound I-9, N-(3-(2-(4-(4-acetylpiperazin-1-yl)-2-methoxyphenylamino)-5-chloropyrimidin-4-yloxy)phenyl)acrylamide]	>50	>5		
> 1000				C=CC(=O)Nc1cccc(Oc2nc(Nc3ccc(N4CCN(C(=O)OC(C)(C)C)CC4)cc3OC(F)(F)F)ncc2Cl)c1 [Compound I-47, tert-butyl 4-(4-(4-(3-acrylamidophenoxy)-5-chloropyrimidin-2-ylamino)-3-(trifluoromethoxy)phenyl)piperazine-1-carboxylate]				
100 to 300				C=CC(=O)Nc1cccc(Oc2nc(Nc3ccc(N4CCN(C(=O)CC(C)(C)C)CC4)cc3OC)ncc2Cl)c1 [Compound I-23, N-(3-(5-chloro-2-(4-(4-(3,3-dimethylbutanoyl)piperazin-1-yl)-2-methoxyphenylamino)pyrimidin-4-yloxy)phenyl)acrylamide]	>20	>1		
30 to 100				C=CC(=O)Nc1cccc(Oc2nc(Nc3ccc(N4CCCOCC4)cc3OC)ncc2Cl)c1 [Compound I-37, N-(3-(5-chloro-2-(2-methoxy-4-(1,4-oxazepan-4-yl)phenylamino)pyrimidin-4-yloxy)phenyl)acrylamide]	>10	>1		
< 1				C=CC(=O)Nc1cccc(Nc2nc(Nc3ccc(N4CCN(C(C)=O)CC4)cc3OC(F)F)ncc2C(F)(F)F)c1 [Compound I-32, N-(3-(2-(4-(4-acetylpiperazin-1-yl)-2-(difluoromethoxy)phenylamino)-5-(trifluoromethyl)pyrimidin-4-ylamino)phenyl)acrylamide]				
1 to 10				C=CC(=O)Nc1cccc(Nc2nc(Nc3ccc(N4CCN(C(=O)NC)CC4)cc3OC)ncc2C(F)(F)F)c1 [Compound I-28, 4-(4-(4-(3-acrylamidophenylamino)-5-(trifluoromethyl)pyrimidin-2-ylamino)-3-methoxyphenyl)-N-methylpiperazine-1-carboxamide]	>50	>5		

Reference: patent publication US8975249B2, “Heterocyclic compounds and uses thereof” (Celgene Avilomics Research, Inc., priority 2010, dated 2015)
